From patent US10059708B2, “Therapeutic targeting of the interleukin 1 receptor-associated kinase 4 (IRAK4) in leukemias characterized by rearrangements in the mixed lineage leukemia gene (MLL-r)” (Northwestern University, priority 2016, dated 2018)

Assays:
REH cells = assay: REH cell proliferation (trypan blue, Vi-CELL XR); format: cell-based, human; details: 500 nM IRAK4 inhibitor
Procedure: FIG. 4. […] Viable cells were seeded at 0.2 million/mL, and they were monitored by trypan blue exclusion staining and counted using a Vi-CELL XR cell counter. Data are represented as mean±SD (n=3). […] Data are represented as mean±SD (n=3). (C) Venn diagram of deregulated genes in SEM cells by IRAK1/4 and IRAK4 inhibitors. […] (D) Venn diagram of deregulated genes in SEM and REH cells by both inhibitors. Little overlap was observed between REH and SEM cells. […] Each cluster is represented by different colors and a circle node represents each enriched term. (G) UBE2O depletion and IRAK inhibition affect a common subset of genes in SEM cells. […] Heatmaps represent Z score-normalized values. See also FIG. 11.
Stabilization of MLL through IRAK Inhibition and UBE2O Depletion Regulates a Specific Gene Regulatory Network in MLL Leukemia. To measure the consequence of stabilizing MLL in MLL leukemia cells, we determined the effects of IRAK inhibition on cell proliferation of REH (MLL-germline leukemia) and SEM (MLL-AFF1) cells. Both of these cell lines are derived from precursor B cell ALL patient blast cells, and, therefore, they have been studied when comparing non-MLL (REH) and MLL-dependent (SEM) leukemia gene expression (Guenther et al., 2008).

[1] = test system: MLL-rearranged AML and ALL leukemia cells; assay: Dose-dependent growth study with patient-derived leukemia cell lines; format: cell-based, human; details: different doses, 3 days
Procedure: (§1) FIG. 5. Determinants of the Increased Sensitivity of MLL Leukemia Cells to IRAK Inhibition (A) IRAK4 inhibitor-specific inhibition of MLL leukemia cell proliferation. Multiple MLL leukemia and non-MLL leukemia or lymphoma cell lines were cultured with different doses of IRAK4 inhibitor for 3 days. Data are represented as mean±SD (n=3). (B) Cell growth of MLL-AF9-positive AML MM6 cells is inhibited by IRAK inhibition. Data are represented as mean±SD (n=3). […] The p value was determined with the hypergeometric test. […] (E and F) Depletion of LGALS1 (E) and LMO2 (F) results in reduced growth of MM6 cells. MM6 cells were transduced with shGFP control (GFPi) or two different lentiviral shRNA constructs. After selection with puromycin for 4 days, viable cells were seeded at 0.2 million/mL and cultured for 3 more days before cell viability counting. Data represent the mean±SD (n=3; **p<0.005, one-way ANOVA). See also FIG. 12.
(§2) Determinants of the Increased Sensitivity of MLL Leukemia Cells to IRAK Inhibition. To further determine the effectiveness of IRAK inhibition for MLL leukemia cell growth, we performed dose-dependent studies with multiple patient-derived leukemia cell lines, including MLL leukemia and non-MLL leukemia or lymphoma cells.

[2] = test system: MLL-AF6-positive ML2 leukemia cells; assay: Dose-dependent growth study, ML2 cells; format: cell-based, human; details: different doses, 3 days
Procedure: as §1, §2

MLL-AF9 leukemia = assay: Murine MLL-AF9 leukemia transplantation model; format: in vivo, C57BL/6 mice; details: treatment from day 10 after transplantation; IRAK1/4 inhibitor 8 mg/kg, IRAK4 inhibitor 75 mg/kg i.p. every other day; vehicle mice all dead by 31 days
Excerpt: After transformation of MLL-AF9, c-Kit+ HSPCs were transplanted into lethally irradiated C57BL/6 mice with 1 3 106 transformed cells and 2 3 105 support cells. Leukemia cells from primary AML mice were isolated and transplanted into sublethally irradiated C57BL/6 mice. Drug treatments were started at day 10 or 19 after transplantation. (B) Kaplan-Meier survival curves of secondary transplanted C57BL/6 mice after vehicle and IRAK1/4 or IRAK4 inhibitor treatment at day 19 (blast phase). Vehicle or IRAK inhibitors were administered every other day by intraperitoneal injection for a total of five treatments. Leukemia was confirmed at the endpoint for each transplant mouse. […] The p values were calculated using the log rank test. […] The p values were calculated using the log rank test. […]
We further assessed the effects of the IRAK inhibitors in vivo using the murine MLL-AF9 leukemia transplantation model (FIG. 7A) (Volk et al., 2014). […]
Murine MLL-AF9 Leukemia Model. […] The mice were monitored for signs of acute leukemia for 2-3 months and euthanized when leukemia was evident (weight loss below 16.75 g, reduced mobility, malaise, palpable spleen, and hunched back). […]
Animal Treatment. […] Mice were monitored for leukemia development and leukemia was verified after the mice were sacrificed upon signs of illness (weight loss below 16.75 g, partial paralysis, malaise, palpable spleen, and hunched back).

In the case of COc1cc2c(cc1OCCCN1CCN(C)CC1)ncc1c3ccc(C#N)cc3[nH]c21 [IRAK4 inhibitor], the REH cell proliferation (REH cells) is reported as “no detectable effect”, the “cell growth of MLL-rearranged versus non-MLL leukemia or lymphoma cells” value [1] is reported as “preferentially impeded cell growth of MLL-rearranged AML and ALL leukemia cells” and the “sensitivity of ML2 cells (wild-type MLL allele deleted)” value [2] is reported as “not sensitive”. For the same compound, the “mice that still did not develop MLL-AF9 leukemia as of day 55” value (MLL-AF9 leukemia) was “four of nine”.
